Several values for one entry are separate records, joined by “and”; a condition that tells them apart may be missing. Equal entries are not always repeated.
Experiments:
Melanoma ME115 cells = experiment: Disruption of melanoma cell adhesion, pan-cadherin staining; type: cell-based, human; details: 500 μg/mL, 48 hours
Protocol: Melanoma ME115 cells (kindly provided by Meenhard Herlyn, Wistar Institute, Philadelphia, Pa.) were plated on glass coverslips and cultured for 24 hours in 50% keratinocyte growth medium (Clonetics, San Diego, Calif.) and 50% L15. Fresh medium containing the cyclic peptides (final concentration 500 μg/mL media) N—Ac-CHAVC-NH2 (SEQ ID NO:10) or N—Ac-CHGVC-NH2 (SEQ ID NO:11) was then added. Following 24 hours of culture in the presence of the peptides, the medium was removed and fresh medium containing the peptides was added. The cells were fixed 24 hours later with cold methanol and stored in phosphate buffered saline (PBS).
Coverslips were blocked for 1 hour in 3% ovalbumin/PBS and incubated for a further 1 hour in the presence of rabbit pan-cadherin antibody (Sigma Chemical Co., St. Louis, Mo.) diluted 1:500. Primary and secondary antibodies were diluted in PBS containing 6% normal goat serum. Following incubation in the primary antibody, coverslips were washed 3 times for 5 minutes each in PBS and incubated for 1 hour in goat anti-rabbit immunoglobulin G conjugated to fluorescein (Kiekegard and Perry, South San Francisco, Calif.) diluted 1:100. Following a further wash in PBS (3×5 minutes) coverslips were mounted in Vectashield (Vector Labs, Burlingame, Calif.) and viewed with a Zeiss infinity corrected microscope.

[1] = test system: SKOV3 human ovarian cancer cells; experiment: Induction of apoptosis in SKOV3 cancer cells, in situ cell death detection; type: cell-based; details: 0.5 or 0.25 mg/mL, 48 hours
Protocol: Direct assays of induction of apoptosis may be performed using any standard technique. For example, cadherin-expressing cells (e.g., SKOV3 human ovarian cancer cells) may be plated onto poly-L-lysine coated glass slides and cultured with 500 μg/mL of modulating agent for 24-48 hours. Cells may then be fixed and assayed for cell death using any of a variety of well known methods. For example, an in situ cell death detection kit may be purchased from Boehringer Mannheim (Laval, Quebec) and used according to the manufacturer's instructions.
SKOV3 human ovarian cancer cells cultured in the presence of either N—Ac-CHAVC-NH2 (SEQ ID NO:10) or a control peptide (N—Ac-CHGVC-NH2; SEQ ID NO:11) in MEM with 10% FBS were plated onto poly-L-lysine coated glass slides. The cells were cultured for 24 or 48 hours and fixed with 4% paraformaldehyde for 30 minutes at room temperature. The slides were then washed three times with PBS and assessed for cell death. Cells were treated with 0.5 or 0.25 mg/mL of N—Ac-CHAVC-NH2 (SEQ ID NO:10) or the control N—Ac-CHGVC-NH2 (SEQ ID NO:11), as indicated. Cell death was measured as described by Gavrieli et al, J. Cell. Biol. 119:493-501, 1992 and using the In situ cell death detection kit (Boehringer Mannheim; Laval, Quebec).

human skin = experiment: Human skin permeability, Franz Cell apparatus
Protocol: Another cell adhesion assay involves evaluating the effect of a modulating agent on permeability of adherent epithelial and/or endothelial cell layers. For example, the effect on permeability of human skin may be evaluated. Such skin may be derived from a natural source or may be synthetic. Human abdominal skin for use in such assays may generally be obtained from humans at autopsy within 24 hours of death. Briefly, a cyclic peptide and a test marker (e.g., the fluorescent markers Oregon Green™ and Rhodamine Green™ Dextran) may be dissolved in a sterile buffer, and the ability of the marker to penetrate through the skin and into a receptor fluid may be measured using a Franz Cell apparatus (Franz, Curr. Prob. Dermatol. 7:58-68, 1978; Franz, J. Invest. Dermatol. 64:190-195, 1975). In general, a modulating agent that enhances the permeability of human skin results in a statistically significant increase in the amount of marker in the receptor compartment after 6-48 hours in the presence of 500 μg/mL modulating agent. This assay evaluates the effect of a modulating agent on E-cadherin mediated cell adhesion.
Abdominal skin from humans at autopsy within 24 hours of death was used in these assays. The effect of N—Ac-CHAVC-NH2 (SEQ ID NO:10) and N—Ac-CHGVC-NH2 (SEQ ID NO:11), used at a concentration of 500 μg/ml or 2.5 mg/ml, on the penetration of two fluorescent markers, Oregon Green 488 (charge −1, MW 386 daltons) and Rhodamine Green 3000 Dextran (no charge, MW 3000 daltons) through human skin was then evaluated utilizing a Franz Cell apparatus (Franz, Curr. Prob. Dermatol. 7:58-68, 1978; Franz, J. Invest. Dermatol. 64:190-195, 1975). The peptides and markers were dissolved in sterile phosphate buffer, pH 7.2, and phosphate buffer was used as the receptor fluid. 150 μl of solution containing 0.2 mg Oregon Green and 1.0 mg Rhodamine Green was used to evaluate 500 μg/ml peptide; 200 μl of solution containing 0.05 mg Oregon Green and 1.250 mg Rhodamine Green was used to evaluate 2.5 mg/ml peptide. The solution was placed on top of the epidermal side of the skin, and the penetration of the markers through the skin was assessed using a fluorescent spectrophotometric method (in a Perkin Elmer 650-105 Fluorescence Spectrophotometer, and comparing the reading to a standard curve) at 6, 12, 24, 36, and 48 hours after the start of the experiment. The fluorescent units were converted to a concentration unit of microgram/5 ml (volume of the receiver compartment) using a standard curve and regression analysis equations. The curve was linear for the concentrations tested for both markers (r^2=1 for OrG and 0.997 for RhG). For each peptide and marker combination, the experiment was performed in triplicate.

[2] = 500 μg/ml Peptide, t = 6 hours, Mean
[3] = 500 μg/ml Peptide, t = 6 hours, single replicates, listed as Sample#3
[4] = 500 μg/ml Peptide, t = 12 hours, Mean
[5] = 500 μg/ml Peptide, t = 12 hours, single replicates, listed as Sample#3
[6] = 500 μg/ml Peptide, t = 24 hours, Mean
[7] = 500 μg/ml Peptide, t = 24 hours, single replicates, listed as Sample#3
[8] = 500 μg/ml Peptide, t = 36 hours, Mean
[9] = 500 μg/ml Peptide, t = 36 hours, single replicates, listed as Sample#3
[10] = 500 μg/ml Peptide, t = 48 hours, Mean
[11] = 500 μg/ml Peptide, t = 48 hours, single replicates, listed as Sample#3
[12] = 2.5 mg/ml Peptide, t = 6 hours, Mean
[13] = 2.5 mg/ml Peptide, t = 6 hours, single replicates, listed as Sample#3
[14] = 2.5 mg/ml Peptide, t = 12 hours, Mean
[15] = 2.5 mg/ml Peptide, t = 12 hours, single replicates, listed as Sample#3
[16] = 2.5 mg/ml Peptide, t = 24 hours, Mean
[17] = 2.5 mg/ml Peptide, t = 24 hours, single replicates, listed as Sample#3
[18] = 2.5 mg/ml Peptide, t = 36 hours, Mean
[19] = 2.5 mg/ml Peptide, t = 36 hours, single replicates, listed as Sample#3
[20] = 2.5 mg/ml Peptide, t = 48 hours, Mean
[21] = 2.5 mg/ml Peptide, t = 48 hours, single replicates, listed as Sample#3

SMILES: CC(=O)N[C@H]1CSSC[C@@H](C(N)=O)NC(=O)[C@H](C(C)C)NC(=O)CNC(=O)[C@H](Cc2c[nH]cn2)NC1=O [N—Ac—CHGVC—NH2, reference compound]
- cadherin staining of ME115 cells (Melanoma ME115 cells): displayed cadherin staining all over the cell membrane
- cell death of SKOV3 cells [1]: did not die
- Percutaneous absorption concentration for Dextran Rhodamine Green 3000 (human skin; [2]): 0.23 mg/5ml
- Percutaneous absorption concentration for Oregon Green 488 (human skin; [2]): 0.055 mg/5ml
- Percutaneous absorption concentration for Dextran Rhodamine Green 3000 (human skin; [3]): 0.2 mg/5ml (2×) and 0.3 mg/5ml
- Percutaneous absorption concentration for Oregon Green 488 (human skin; [3]): 0.098 mg/5ml and 0.022 mg/5ml and 0.045 mg/5ml
- Percutaneous absorption concentration for Dextran Rhodamine Green 3000 (human skin; [4]): 0.67 mg/5ml
- Percutaneous absorption concentration for Oregon Green 488 (human skin; [4]): 0.132 mg/5ml
- Percutaneous absorption concentration for Dextran Rhodamine Green 3000 (human skin; [5]): 0.6 mg/5ml and 1.0 mg/5ml and 0.4 mg/5ml
- Percutaneous absorption concentration for Oregon Green 488 (human skin; [5]): 0.200 mg/5ml and 0.107 mg/5ml and 0.088 mg/5ml
- Percutaneous absorption concentration for Dextran Rhodamine Green 3000 (human skin; [6]): 1.07 mg/5ml
- Percutaneous absorption concentration for Oregon Green 488 (human skin; [6]): 0.698 mg/5ml
- Percutaneous absorption concentration for Dextran Rhodamine Green 3000 (human skin; [7]): 1.0 mg/5ml and 1.4 mg/5ml and 0.8 mg/5ml
- Percutaneous absorption concentration for Oregon Green 488 (human skin; [7]): 0.709 mg/5ml and 0.864 mg/5ml and 0.522 mg/5ml
- Percutaneous absorption concentration for Dextran Rhodamine Green 3000 (human skin; [8]): 1.2 mg/5ml
- Percutaneous absorption concentration for Oregon Green 488 (human skin; [8]): 0.802 mg/5ml
- Percutaneous absorption concentration for Dextran Rhodamine Green 3000 (human skin; [9]): 1.0 mg/5ml (2×) and 1.6 mg/5ml
- Percutaneous absorption concentration for Oregon Green 488 (human skin; [9]): 0.769 mg/5ml and 0.923 mg/5ml and 0.714 mg/5ml
- Percutaneous absorption concentration for Dextran Rhodamine Green 3000 (human skin; [10]): 2.99 mg/5ml
- Percutaneous absorption concentration for Oregon Green 488 (human skin; [10]): 0.902 mg/5ml
- Percutaneous absorption concentration for Dextran Rhodamine Green 3000 (human skin; [11]): 1.8 mg/5ml (2×) and 5.370 mg/5ml
- Percutaneous absorption concentration for Oregon Green 488 (human skin; [11]): 0.923 mg/5ml and 1.021 mg/5ml and 0.764 mg/5ml
- Percutaneous absorption concentration for Dextran Rhodamine Green 3000 (human skin; [12]): 1.93 mg/5ml
- Percutaneous absorption concentration for Oregon Green 488 (human skin; [12]): 0.04 mg/5ml
- Percutaneous absorption concentration for Dextran Rhodamine Green 3000 (human skin; [13]): 1.8 mg/5ml and 0.2 mg/5ml and 3.8 mg/5ml
- Percutaneous absorption concentration for Oregon Green 488 (human skin; [13]): 0.04 mg/5ml and 0.01 mg/5ml and 0.06 mg/5ml
- Percutaneous absorption concentration for Dextran Rhodamine Green 3000 (human skin; [14]): 8.97 mg/5ml
- Percutaneous absorption concentration for Oregon Green 488 (human skin; [14]): 0.07 mg/5ml
- Percutaneous absorption concentration for Dextran Rhodamine Green 3000 (human skin; [15]): 17.02 mg/5ml and 2.0 mg/5ml and 7.89 mg/5ml
- Percutaneous absorption concentration for Oregon Green 488 (human skin; [15]): 0.11 mg/5ml and 0.04 mg/5ml and 0.08 mg/5ml
- Percutaneous absorption concentration for Dextran Rhodamine Green 3000 (human skin; [16]): 15.64 mg/5ml
- Percutaneous absorption concentration for Oregon Green 488 (human skin; [16]): 0.16 mg/5ml
- Percutaneous absorption concentration for Dextran Rhodamine Green 3000 (human skin; [17]): 27.47 mg/5ml and 5.56 mg/5ml and 13.9 mg/5ml
- Percutaneous absorption concentration for Oregon Green 488 (human skin; [17]): 0.12 mg/5ml and 0.11 mg/5ml and 0.26 mg/5ml
- Percutaneous absorption concentration for Dextran Rhodamine Green 3000 (human skin; [18]): 19.73 mg/5ml
- Percutaneous absorption concentration for Oregon Green 488 (human skin; [18]): 0.25 mg/5ml
- Percutaneous absorption concentration for Dextran Rhodamine Green 3000 (human skin; [19]): 33.06 mg/5ml and 5.79 mg/5ml and 20.35 mg/5ml
- Percutaneous absorption concentration for Oregon Green 488 (human skin; [19]): 0.23 mg/5ml and 0.22 mg/5ml and 0.29 mg/5ml
- Percutaneous absorption concentration for Dextran Rhodamine Green 3000 (human skin; [20]): 25.53 mg/5ml
- Percutaneous absorption concentration for Oregon Green 488 (human skin; [20]): 0.36 mg/5ml
- Percutaneous absorption concentration for Dextran Rhodamine Green 3000 (human skin; [21]): 40.86 mg/5ml and 8.25 mg/5ml and 27.48 mg/5ml
- Percutaneous absorption concentration for Oregon Green 488 (human skin; [21]): 0.36 mg/5ml and 0.26 mg/5ml and 0.46 mg/5ml

Reference: US20040106545A1, “Compounds and methods for modulating cell adhesion” (priority 1996, published 2004)
